One assay concerns the target T1, human DGKα (Homo sapiens, UniProt P23743).
T1 construct: TVMV protease cleavage site (C); Hexa-His (C); made in house; host or cells: Sf9 insect cells (baculovirus, Bac-to-Bac)
Put plainly: DGKα LIPGLO assay (extruded liposome substrate), in vitro DGK inhibition. Type of assay: biochemical. The conditions noted are these: liposome (LIPGLO) assay; read-out: DGKa LIPGLO IC50.

The next assay addresses T2, human DGKζ (Homo sapiens, UniProt Q13574).
T2 construct: TVMV protease cleavage site (C); Hexa-His (C); made in house; host or cells: Sf9 insect cells (baculovirus, Bac-to-Bac)
Put plainly: DGKζ LIPGLO assay (extruded liposome substrate), in vitro DGK inhibition. Type of assay: biochemical. Particulars: liposome (LIPGLO) assay; read-out: DGKz LIPGLO IC50.

The test system of assay [1] is OT-1 CD8+ T cells with SIINFEKL-loaded MC38 tumor cells. In words: Murine cytotoxic T lymphocyte assay (IFN-γ, OT-1 CTL with MC38 tumor cells). The conditions noted are these: read-out: msCTL INFg IC50. Type of assay: cell-based, mouse. In a few lines:
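OT-1 CD8+ T cells, expanded 5 days with OVA peptide (1 μg/mL) and mIL2, pretreated 1 h with DGK inhibitors, then co-cultured overnight at 37° C at 1:10 with MC38 cells pulsed 3 h with 1 μg/mL SIINFEKL. IFN-γ in 24 h supernatant by AlphaLISA.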

Another assay concerns naïve human CD8 T cells. Put plainly: Human CD8 T cells IFN-γ assay.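 Also: Naïve human CD8 T cells stimulated with plate-bound anti-CD3 and soluble anti-CD28, IFN-γ in supernatant quantified by AlphaLISA and converted to pg/mL.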 It counts as cell-based. The conditions noted are these: normalized to 3 μM reference compound with anti-CD3 plus anti-CD28 as 100% activation, read-out: HuCD8 INFG Normalized EC50.
The test system of the next assay is Human venous whole blood. Put plainly: Human whole blood IFN-γ assay.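 Also: blood from healthy donors exposed to compound for 1 h before stimulation with anti-CD3 and anti-CD28 at 1 µg/mL each, IFN-γ quantified in supernatant by AlphaLISA.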 Type of assay: cell-based. The conditions noted are these: human whole blood, normalized to 3 μM reference compound with anti-CD3 plus anti-CD28 as 100% activation, read-out: INFg Whole Blood Normalized Agonist EC50.

Where two headings read alike, the source gives them in different places.

T1 sequence (P23743 with tags, fused parts or gaps): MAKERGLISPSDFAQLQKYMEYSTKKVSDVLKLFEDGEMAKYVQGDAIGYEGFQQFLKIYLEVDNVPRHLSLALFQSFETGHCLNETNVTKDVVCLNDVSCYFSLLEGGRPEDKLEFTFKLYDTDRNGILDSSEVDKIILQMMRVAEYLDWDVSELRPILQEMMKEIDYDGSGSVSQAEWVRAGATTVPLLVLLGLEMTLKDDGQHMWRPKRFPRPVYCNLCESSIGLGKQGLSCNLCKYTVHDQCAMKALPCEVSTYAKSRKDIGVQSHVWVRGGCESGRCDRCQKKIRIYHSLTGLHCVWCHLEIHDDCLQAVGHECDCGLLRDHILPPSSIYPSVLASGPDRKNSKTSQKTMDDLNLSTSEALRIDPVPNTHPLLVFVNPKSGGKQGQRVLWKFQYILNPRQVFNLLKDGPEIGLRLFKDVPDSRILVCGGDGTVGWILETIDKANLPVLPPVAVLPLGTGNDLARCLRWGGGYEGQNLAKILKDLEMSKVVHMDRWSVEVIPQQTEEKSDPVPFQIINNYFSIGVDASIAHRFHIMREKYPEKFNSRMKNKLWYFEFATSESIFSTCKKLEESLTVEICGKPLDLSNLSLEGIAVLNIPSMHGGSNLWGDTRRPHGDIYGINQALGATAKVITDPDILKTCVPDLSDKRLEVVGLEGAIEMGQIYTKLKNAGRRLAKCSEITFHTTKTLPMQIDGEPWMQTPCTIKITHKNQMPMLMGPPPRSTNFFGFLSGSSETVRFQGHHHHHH
T2 sequence (Q13574 with tags, fused parts or gaps isoform Q13574-4): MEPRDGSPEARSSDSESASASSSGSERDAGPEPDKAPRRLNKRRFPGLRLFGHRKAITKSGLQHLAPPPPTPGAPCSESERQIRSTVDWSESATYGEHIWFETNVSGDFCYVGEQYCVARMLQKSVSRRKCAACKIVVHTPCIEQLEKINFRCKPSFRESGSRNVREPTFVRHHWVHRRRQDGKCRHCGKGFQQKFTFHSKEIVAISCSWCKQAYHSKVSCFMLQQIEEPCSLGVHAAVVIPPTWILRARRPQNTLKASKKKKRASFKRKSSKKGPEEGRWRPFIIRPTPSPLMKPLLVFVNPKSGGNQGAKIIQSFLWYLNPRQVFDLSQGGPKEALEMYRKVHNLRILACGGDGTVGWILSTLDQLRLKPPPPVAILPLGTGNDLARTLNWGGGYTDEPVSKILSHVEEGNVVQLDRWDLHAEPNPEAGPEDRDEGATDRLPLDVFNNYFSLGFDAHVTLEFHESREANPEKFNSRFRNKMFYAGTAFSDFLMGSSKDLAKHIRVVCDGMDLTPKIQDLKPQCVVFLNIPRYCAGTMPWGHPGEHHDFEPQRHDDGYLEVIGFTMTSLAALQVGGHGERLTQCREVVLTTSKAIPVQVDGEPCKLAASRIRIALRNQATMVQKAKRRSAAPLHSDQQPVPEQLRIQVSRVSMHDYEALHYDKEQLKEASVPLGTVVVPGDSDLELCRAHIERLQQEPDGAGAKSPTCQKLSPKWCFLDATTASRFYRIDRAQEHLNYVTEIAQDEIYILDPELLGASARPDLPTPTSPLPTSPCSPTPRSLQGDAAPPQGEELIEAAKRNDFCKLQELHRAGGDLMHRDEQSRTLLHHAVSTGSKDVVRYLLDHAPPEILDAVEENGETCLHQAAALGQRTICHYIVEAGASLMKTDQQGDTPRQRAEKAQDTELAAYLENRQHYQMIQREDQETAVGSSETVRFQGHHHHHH
Procedure for Human venous whole blood: Human Whole Blood IFN-γ Assay
Human venous whole blood (22.5 μL per well), obtained from healthy donors, was pre-treated with compounds for one hour at 37° C. in a humidified 95% air/5% CO2 incubator. The blood was stimulated with 2.5 μL anti-human CD3 and anti-CD28 mAb at a final concentration of 1 μg/mL each for 24 hours at 37° C. IFN-γ in the supernatants was measured using AlphLISA kit (Cat # AL217).
Procedure for naïve human CD8 T cells: Human CD8 T Cells IFN-γ Assay
Frozen naïve human CD8 T cells were thawed in AIM-V media, incubated for 2 h in 37° C., and counted. The 384-well tissue culture plate was coated overnight at 4° C. with 20 μL anti-human CD3 at 0.05 μg/mL in PBS, which was removed off the plate before 40,000 cells per 40 microliters CD8 T cells with 0.1 μg/mL soluble anti-human CD28 were added to each well. The compounds were transferred using an Echo liquid handler to the cell plate immediately after the cells were plated. After 20 h incubation at 37° C. incubator, 3 microliters per well supernatants transferred into a new 384-well white assay plate for cytokine measurement.
Interferon-γ (IFN-γ) was quantitated using the AlphLISA kit (Cat # AL217) as described by the manufacturer manual (Perkin Elmer). The counts from each well were converted to IFN-γ concentration (pg/mL).

In general, IC50 refers to the concentration that inhibits the measured activity by half. The term EC50 denotes the concentration needed to bring the measured effect to its halfway point. `Cc1c(N2C[C@@H](C)N(C(c3ccc(F)cc3)c3ccc(F)cc3)C[C@@H]2C)c2nc(C#N)ccc2n(C)c1=O` [Example 22, 8-((2S,5R)-4-(bis(4-fluorophenyl)methyl)-2,5-dimethylpiperazin-1-yl)-5,7-dimethyl-6-oxo-5,6-dihydro-1,5-naphthyridine-2-carbonitrile]: the IC50 was found to be 44000 nM on human DGKα; 37000 nM at human DGKζ; 10000 nM in assay [1] (Mus musculus, MC-38). Also, the EC50 in the assay on naïve human CD8 T cells (Homo sapiens, T-cell, 20 h) stood at 10000 nM; in the assay with Human venous whole blood (Homo sapiens, 24 h) it was 20000 nM.
Turning to `Cn1c(=O)c(Cl)c(N2CCN(C(c3ccc(F)cc3)c3ccc(F)cc3)C(CO)C2)c2nc(C#N)ccc21` (single isomer, unassigned) [Example 101, 8-(4-(bis (4-fluorophenyl)methyl)-3-(hydroxymethyl)piperazin-1-yl)-7-chloro-5-methyl-6-oxo-5,6-dihydro-1,5-naphthyridine-2-carbonitrile], the results for the IC50 (on human DGKα; on human DGKζ; in assay [1]) were 3300 nM, 1600 nM and 140 nM, respectively. The EC50 in the assay with naïve human CD8 T cells is 77 nM; with Human venous whole blood it was 2300 nM.
`C[C@@H]1CN(c2cc(=O)n(C)c3ccc(C#N)nc23)[C@@H](C)CN1C(c1ccc(Cl)cc1)c1ccc(Cl)cc1` [Example 25, 8-((2S,5R)-4-(bis(4-chlorophenyl)methyl)-2,5-dimethylpiperazin-1-yl)-5-methyl-6-oxo-5,6-dihydro-1,5-naphthyridine-2-carbonitrile]: the IC50 is 650 nM at human DGKα; 250 nM at human DGKζ; 41 nM in assay [1] (Mus musculus, MC-38). Besides, the EC50 in the assay with naïve human CD8 T cells (Homo sapiens, T-cell, 20 h) came out at 4.3 nM; in the assay with Human venous whole blood (Homo sapiens, 24 h), 390 nM.
`COc1cc(F)ccc1C(c1ccc(F)cc1)N1C[C@H](C)N(c2cc(=O)n(C)c3ccc(C#N)nc23)C[C@H]1C` (single isomer, unassigned) [Example 108]: the figures for the IC50 (on human DGKα; at human DGKζ; in assay [1]) were 3400 nM, 130 nM and 130 nM, respectively. Also, the EC50 amounted to 33 nM in the assay with naïve human CD8 T cells and 440 nM in the assay with Human venous whole blood.
On to `C[C@@H]1CN(c2cc(=O)n(C)c3ccc(C#N)nc23)[C@@H](C)CN1C(c1ccc(F)cc1)c1ccc(C#N)cc1` (single isomer, unassigned) [Example 307], for which the IC50 is 470 nM at human DGKα, 1000 nM on human DGKζ and 31 nM in assay [1]. Moreover, the EC50 with naïve human CD8 T cells came to 30 nM; with Human venous whole blood, 330 nM.
As for `C[C@@H]1CN(c2cc(=O)n(C)c3ccc(C#N)nc23)[C@@H](C)CN1C(c1ccc(F)cc1)c1ccc(Cl)cc1` (single isomer, unassigned) [Example 303], the IC50 at human DGKα worked out at 500 nM; at human DGKζ, 690 nM; in assay [1] it was 57 nM. Also, the EC50 in the assay with naïve human CD8 T cells stood at 160 nM; in the assay on Human venous whole blood, 650 nM.
Consider `COC(=O)C1CN(c2c(Cl)c(=O)n(C)c3ccc(C#N)nc23)CCN1C(c1ccc(F)cc1)c1ccc(F)cc1` (single isomer, unassigned) [Example 76, methyl 1-(bis(4-fluorophenyl)methyl)-4-(3-chloro-6-cyano-1-methyl-2-oxo-1,2-dihydro-1,5-naphthyridin-4-yl)piperazine-2-carboxylate], for which the IC50 is 3400 nM at human DGKα, 5200 nM on human DGKζ and 280 nM in assay [1]. Also, the EC50 with naïve human CD8 T cells (Homo sapiens, T-cell, 20 h) was determined as 10000 nM; in the assay on Human venous whole blood (Homo sapiens, 24 h), 1600 nM.
With `Cn1c(=O)cc(N2CCN(C(c3ccc(F)cc3)c3ccc(F)cc3)C(C#N)C2)c2nc(C#N)ccc21` (single isomer, unassigned) [Example 45, 8-(4-(bis(4-fluorophenyl)methyl)-3-cyanopiperazin-1-yl)-5-methyl-6-oxo-5,6-dihydro-1,5-naphthyridine-2-carbonitrile], the IC50 at human DGKα was found to be 7200 nM; on human DGKζ, 2400 nM; in assay [1], 910 nM. For the same molecule, the results for the EC50 in the assay with naïve human CD8 T cells and in the assay with Human venous whole blood were 530 nM and 2300 nM, respectively.
On to `Cc1ccc(C(c2ccc(C)cc2)N2C[C@H](C)N(c3cc(=O)n(C)c4ccc(C#N)nc34)C[C@H]2C)cc1` [Example 301, 8-[(2S,5R)-4-[bis(4-methylphenyl)methyl]-2,5-dimethylpiperazin-1-yl]-5-methyl-6-oxo-5,6-dihydro-1,5-naphthyridine-2-carbonitrile], for which the IC50 was 1500 nM on human DGKα; 870 nM on human DGKζ; 72 nM in assay [1] (Mus musculus, MC-38). Moreover, the EC50 worked out at 9.5 nM with naïve human CD8 T cells (Homo sapiens, T-cell, 20 h) and 520 nM in the assay on Human venous whole blood (Homo sapiens).
For the molecule `C[C@@H]1CN(c2cc(=O)n(C)c3ccc(C#N)nc23)[C@@H](C)CN1C(c1ccc(F)cc1)c1ccc(C#N)cc1` (single isomer, unassigned) [Example 306], the IC50 stood at 470 nM at human DGKα; 1300 nM on human DGKζ; 53 nM in assay [1] (Mus musculus, MC-38). For the same molecule, the EC50 was determined as 54 nM in the assay on naïve human CD8 T cells (Homo sapiens, T-cell, 20 h) and 530 nM in the assay on Human venous whole blood (Homo sapiens, 24 h).
For the molecule `COC(=O)C1CN(c2cc(=O)n(C)c3ccc(C#N)nc23)CCN1C(c1ccc(F)cc1)c1ccc(F)cc1` (single isomer, unassigned) [Example 40, Methyl 1-(bis(4-fluorophenyl)methyl)-4-(6-cyano-1-methyl-2-oxo-1,2-dihydro-1,5-naphthyridin-4-yl)piperazine-2-carboxylate], the figures for the IC50 (at human DGKα; at human DGKζ; in assay [1]) were 1200 nM, 630 nM and 71 nM, respectively. Further, the EC50 with naïve human CD8 T cells was 28 nM; in the assay with Human venous whole blood, 780 nM.
